The text below walks through data of patent US5023353A, “Deoxoartemisinin: new compound and composition for the treatment of malaria” (priority 1990, dated 1991).

≈ marks a conversion by molar mass, not a printed value. Where two headings read alike, the source gives them in different places.

Data set [1] deals with Plasmodium falciparum W-2. The data set can be described thus: In vitro antimalarial activity, semiautomated microdilution (hypoxanthine incorporation), W-2 clone. Type of data set: cell-based. To be noted: for IC50: Plasmodium falciparum, read-out: In Vitro Antimalarial Activity IC50, W-2. The procedure:
(§1) The intrinsic antimalarial activities of deoxoartemisinin and various control drugs were quantitatively assessed by using modifications of the semiautomated microdilution method of Desjardins. Deoxoartemisinin was dissolved in DMSO and subsequently diluted in culture medium with 10% plasma. Equimolar starting concentrations were predetermined to generate well-defined concentration curves over a 64-fold range of dilutions. Microtiter plates prepared with serial dilutions of drug and parasite suspensions (at 0.5% parasitemia and 1.5% hematocrit) were incubated at 37° C. in an air-tight plexiglass box, which was flushed with 5% oxygen, 5% carbon dioxide, and 90% nitrogen. After 24 hours of incubation, cultures were labeled with tritiated hypoxanthine and incubated for an additional 18-20 hours prior to harvesting particulate matter on fiber glass strips. Hypoxanthine incorporation in each well was determined by scintillation spectrophotometry and served as an index of specific parasite growth rates. Computer-generated concentration-response curves were analyzed by non-linear regression, and 50% inhibitory concentrations were calculated for each drug. The antimalarial tests were conducted using cultures obtained from the Malaria Laboratory, Division of Experimental Therapeutics, WRAIR/WRAMC, Washington, D.C. The W-2 culture utilized in the testing of Example II was of Indochina origin, chloroquine-resistant and mefloquine-sensitive. The other culture D-6, used in the testing of Example II and reported in Table I, is of Sierra Leone origin, chloroquine-sensitive and mefloquine-resistant.
(§2) Set out in Table I are the comparative results obtained from in vitro testing the activity of the inventive compound, known antimalarial compounds, artemisinin, and another derivative of artemisinin.

The test system of data set [2] is Plasmodium falciparum D-6. The data set can be described thus: In vitro antimalarial activity, semiautomated microdilution (hypoxanthine incorporation), D-6 clone. Type of data set: cell-based. To be noted: for IC50: Plasmodium falciparum, read-out: In Vitro Antimalarial Activity IC50, D-6. The procedure: as §1, §2
For data set [3] the following is noted: background statement; cited from earlier work.
The conditions of data set [4]: in vivo; cited from earlier work.
Data set [5] is described as follows: Solubility and lipophilicity.
The subject of the next data set is Plasmodium falciparum. The experiment in a line: Antimalarial screening tests in vitro. Type of data set: cell-based. To be noted: nonperoxy compounds. The procedure:
as §1, with “The W-2 culture utilized in the testing of Example II was of Indochina origin, chloroquine-resistant and mefloquine-sensitive. The other culture D-6, used in the testing of Example II and reported in Table I, is of Sierra Leone origin, chloroquine-sensitive and mefloquine-resistant.” left out

Where [6] appears, read: W-2 clone, Indochina origin, chloroquine-resistant and mefloquine-sensitive.
[7] abbreviates: D-6 clone, Sierra Leone origin, chloroquine-sensitive and mefloquine-resistant.

For `C[C@@H]1CC[C@H]2[C@@H](C)C(=O)O[C@@H]3O[C@@]4(C)CC[C@@H]1[C@]32OO4` [Artemisinin, artemisinin], the results for the IC50 in data set [1] (setting [6]) and in data set [2] (setting [7]) were 1.21 ng/mL (≈ 0.00429 µM) and 2.33 ng/mL (≈ 0.00825 µM), respectively. Further, the “solubility in water or oils” value in data set [3] is listed as “only sparingly soluble in either water or oils”. Moreover, in data set [4], the side effects entry is given as “No side effects”.

Take `CCN(CC)CCCC(C)Nc1ccnc2cc(Cl)ccc12` (centres unmarked) [Chloroquine]: the results for the IC50 in data set [1] and in data set [2] were 55.7 ng/mL (≈ 0.174 µM) and 2.69 ng/mL (≈ 0.00841 µM), respectively.

As for `CC1CCC2C(C)COC3OC4(C)CCC1C32OO4` (centres unmarked) [Deoxoartemisinin, deoxoartemisinin], the results for the IC50 in data set [1] (setting [6]) and in data set [2] (setting [7]) were 0.15 ng/mL (≈ 0.000559 µM) and 0.58 ng/mL (≈ 0.00216 µM), respectively. Further, in data set [1] (against chloroquine-resistant malaria, relative to artemisinin), the “antimalarial activity in vitro as compared to artemisinin, chloroquine-resistant malaria” value is “four”. Moreover, the “antimalarial activity in vitro as compared to artemisinin, chloroquine-sensitive malaria” value in data set [2] (against chloroquine-sensitive malaria, relative to artemisinin) is “approximately eight”. The “solubility in organic solvents” value in data set [5] is “soluble in chloroform, diethylether, acetonitrile, cyclohexane and hexane”.

For `C[C@@H]1CC[C@H]2[C@@H](C)C(=O)O[C@@H]3O[C@@]4(C)CC[C@@H]1[C@]32O4` [Deoxyartemisinin, deoxyartemisinin], the IC50 in data set [2] (setting [7]) turned out to be 762 ng/mL (≈ 2.86 µM). Further, in the data set with Plasmodium falciparum, the “activity in the antimalarial screening tests” value is on record as “failed to exhibit activity”.

Take `OC(c1cc(C(F)(F)F)nc2c(C(F)(F)F)cccc12)C1CCCCN1` (centres unmarked) [Mefloquine]: the results for the IC50 in data set [1] (setting [6]) and in data set [2] (setting [7]) were 0.74 ng/mL (≈ 0.00196 µM) and 7.3 ng/mL (≈ 0.0193 µM), respectively.

Regarding `CCc1nc(N)nc(N)c1-c1ccc(Cl)cc1` [Pyrimethamine], the IC50 in data set [1] (setting [6]) worked out at 39.3 ng/mL (≈ 0.158 µM); in data set [2] (setting [7]), 0.05 ng/mL (≈ 0.000201 µM).

For the compound `C=C[C@H]1C[N@@]2CC[C@H]1C[C@H]2[C@H](O)c1ccnc2ccc(OC)cc12` [Quinine], the IC50 in data set [1] worked out at 59.7 ng/mL (≈ 0.184 µM); in data set [2] it was 10.8 ng/mL (≈ 0.0333 µM).

With `COc1ncnc(NS(=O)(=O)c2ccc(N)cc2)c1OC` [Sulfadoxine], the IC50 in data set [1] (setting [6]) is 14300 ng/mL (≈ 46.2 µM); in data set [2] (setting [7]) it was 16.4 ng/mL (≈ 0.0527 µM).

As for `CN(C)[C@@H]1C(=O)C(C(N)=O)=C(O)[C@@]2(O)C(=O)C3=C(O)c4c(O)cccc4[C@@](C)(O)[C@H]3C[C@@H]12` [Tetracycline], the IC50 in data set [1] stood at 10200 ng/mL (≈ 23 µM); in data set [2], 7230 ng/mL (≈ 16.3 µM).
